Measurements from patent publication US20260184708A1, “PYRIDAZINONES AND METHODS OF USE THEREOF” (GFB (ABC), LLC, priority 2017, published 2026).

How the values were obtained:
[1] = target: T1, TRPC5 (Homo sapiens, UniProt Q9UL62); test: TRPC5 automated patch clamp assay (Qpatch), current block after rosiglitazone stimulation; format: cell-based; details: Table 6; HEK293 cells overexpressing TRPC5; read-out: TRPC5-QPatch IC50
T1 construct: expressed in transfected cells; host or cells: HEK 293
T1 sequence (Q9UL62 1-973): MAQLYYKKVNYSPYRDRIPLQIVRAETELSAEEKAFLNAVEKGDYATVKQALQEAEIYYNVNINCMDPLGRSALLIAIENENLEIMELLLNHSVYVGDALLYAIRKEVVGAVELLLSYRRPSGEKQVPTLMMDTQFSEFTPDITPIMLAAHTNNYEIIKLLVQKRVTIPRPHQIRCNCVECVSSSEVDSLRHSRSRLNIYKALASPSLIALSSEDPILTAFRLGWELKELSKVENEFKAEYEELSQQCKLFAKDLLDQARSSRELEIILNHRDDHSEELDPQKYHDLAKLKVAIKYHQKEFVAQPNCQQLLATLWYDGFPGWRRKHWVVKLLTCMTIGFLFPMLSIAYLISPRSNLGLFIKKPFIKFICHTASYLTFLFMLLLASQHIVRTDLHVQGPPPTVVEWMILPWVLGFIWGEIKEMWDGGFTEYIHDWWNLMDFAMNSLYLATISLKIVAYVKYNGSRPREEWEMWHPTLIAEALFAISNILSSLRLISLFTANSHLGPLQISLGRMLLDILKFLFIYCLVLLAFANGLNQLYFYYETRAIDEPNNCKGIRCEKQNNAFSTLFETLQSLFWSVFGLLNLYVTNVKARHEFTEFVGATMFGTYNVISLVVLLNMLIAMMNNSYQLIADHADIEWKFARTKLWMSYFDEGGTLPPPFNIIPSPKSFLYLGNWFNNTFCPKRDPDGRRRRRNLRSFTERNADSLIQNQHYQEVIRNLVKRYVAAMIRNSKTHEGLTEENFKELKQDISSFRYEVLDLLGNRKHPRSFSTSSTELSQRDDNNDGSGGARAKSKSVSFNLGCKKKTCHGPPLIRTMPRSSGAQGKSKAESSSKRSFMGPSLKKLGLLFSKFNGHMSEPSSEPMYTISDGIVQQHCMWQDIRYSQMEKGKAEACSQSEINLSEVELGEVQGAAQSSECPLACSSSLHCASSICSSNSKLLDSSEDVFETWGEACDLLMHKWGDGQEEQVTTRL
Summary of the method: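 Currents were elicited by 300 ms voltage ramps (−100 to +100 mV, every 10 s, holding −60 mV) in human TRPC5-expressing HEK 293 cells on automated patch clamp, with Rosiglitazone (30 uM) activating the channel. Internal Ca2+ buffered to 1 μM; Hill-equation fitting gave IC50.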

[2] = target: T1, TRPC5; test: TRPC5 fluorescence assay, membrane potential dye, flexstation (FLEX); format: cell-based; details: Table 6; HEK293 cells overexpressing TRPC5
Method: HEK 293 cells expressing human TRPC5 cells were trypsinised, counted and seeded in black, clear-bottomed 96-well plates at a density of 50,000 cells per well and incubated overnight. Next day, the cells were loaded with membrane potential dye. Dye solution was made up according to the manufacturer's instructions in HEPES buffered Hank's balanced salt solution (HBSS). Dye solution (10 μL) was added to the wells and incubated at 37° C. for 1 hour. The test compounds and standard inhibitors were added to the wells and incubated at room temperature for 10 minutes. The plates were then placed in the flexstation and fluorescence monitored every 1.52 seconds. After 20 seconds, 10 μL of the appropriate standard agonist was added and the fluorescence monitored for 2 minutes at ex/emm: 530 nm/565 nm.

IC50 [1] [nM]	IC50 [2] [nM]	SMILES
0.01 to 1000	0.01 to 1000	O=c1[nH]ncc(N2CCc3c(ncn3Cc3cccnc3OC(F)(F)F)C2)c1Cl
1000 to 5000	0.01 to 1000	O=c1[nH]ncc(N2CCc3c(ncn3-c3cccc(C(F)(F)F)c3)C2)c1Cl
1000 to 5000	1000 to 5000	O=c1[nH]ncc(N2CCc3c(ncn3Cc3cccnc3C(F)(F)F)C2)c1Cl
5000 to 10000	5000 to 10000	O=c1[nH]ncc(N2CCc3c(ncn3Cc3ccccc3C(F)(F)F)C2)c1C1CC1
1000 to 5000	1000 to 5000	Cc1ncccc1Cn1cnc2c1CCN(c1cn[nH]c(=O)c1Cl)C2
0.01 to 1000	0.01 to 1000	O=c1[nH]ncc(N2CCc3c(cnn3Cc3ccccc3C(F)(F)F)C2)c1Cl
10000 to 500000	1000 to 5000	Cc1ccccc1-n1cc2c(n1)CCN(c1cn[nH]c(=O)c1Cl)C2
10000 to 500000	10000 to 500000	O=c1[nH]ncc(N2CCc3c(ncn3Cc3ccc(C(F)(F)F)cc3)C2)c1C1CC1
0.01 to 1000	0.01 to 1000	Cc1ccccc1-n1ncc2c1CCN(c1cn[nH]c(=O)c1Cl)C2
1000 to 5000	0.01 to 1000	O=c1[nH]ncc(N2CCc3c(ncn3Cc3cnccc3C(F)(F)F)C2)c1Cl
	0.01 to 1000	O=c1[nH]ncc(N2CCc3nn(Cc4ccc(F)cc4C(F)(F)F)cc3C2)c1Cl
	0.01 to 1000	Cc1cccc(C)c1Cn1cnc2c1CCN(c1cn[nH]c(=O)c1Cl)C2
1000 to 5000	0.01 to 1000	O=c1[nH]ncc(N2CCc3c(cnn3-c3ccccc3OC(F)(F)F)C2)c1Cl
	1000 to 5000	O=c1[nH]ncc(N2CCc3nn(-c4ccccc4OC(F)(F)F)cc3C2)c1Cl
	1000 to 5000	O=c1[nH]ncc(N2CCc3c(cnn3-c3ccccc3C(F)(F)F)C2)c1Cl
1000 to 5000	0.01 to 1000	CCc1cccnc1Cn1cnc2c1CCN(c1cn[nH]c(=O)c1Cl)C2
5000 to 10000	0.01 to 1000	CC[C@@H](c1cncc(F)c1)n1cnc2c1CCN(c1cn[nH]c(=O)c1Cl)C2

IC50 [1] [nM]	IC50 [2] [nM]	SMILES
	10000 to 500000	O=c1[nH]ncc(N2CCc3ncn(Cc4cnccc4C(F)(F)F)c3C2)c1Cl
1000 to 5000	0.01 to 1000	O=c1[nH]ncc(N2CCc3c(ncn3Cc3ccncc3C(F)(F)F)C2)c1Cl
1000 to 5000	0.01 to 1000	CCc1ncccc1Cn1nnc2c1CCN(c1cn[nH]c(=O)c1Cl)C2
0.01 to 1000	0.01 to 1000	O=c1[nH]ncc(N2CCc3c(nnn3Cc3ccc(F)cc3C(F)(F)F)C2)c1Cl
1000 to 5000	0.01 to 1000	N#Cc1c(N2CCc3c(ncn3Cc3ccccc3C(F)F)C2)cn[nH]c1=O
0.01 to 1000	0.01 to 1000	O=c1[nH]ncc(N2CCc3c(nnn3Cc3ccccc3C(F)F)C2)c1Cl
	1000 to 5000	CC[C@H](c1cccnc1)n1nnc2c1CCN(c1cn[nH]c(=O)c1Cl)C2
	0.01 to 1000	C[C@H](c1ccccc1C(F)(F)F)n1nnc2c1CCN(c1cn[nH]c(=O)c1Cl)C2
	0.01 to 1000	O=c1[nH]ncc(N2CCc3c(nnn3Cc3ccc(F)cc3C(F)F)C2)c1Cl
	0.01 to 1000	O=c1[nH]ncc(N2CCc3c(nnn3Cc3ccccc3OC(F)F)C2)c1Cl
1000 to 5000	0.01 to 1000	N#Cc1ccccc1-n1cnc2c1CN(c1cn[nH]c(=O)c1C#N)CC2 [drawing 841]
0.01 to 1000	0.01 to 1000	O=c1[nH]ncc(N2CCc3c(ncn3Cc3ccccc3C(F)(F)F)C2)c1Cl [drawing 850]
0.01 to 1000	0.01 to 1000	O=c1[nH]ncc(N2CCc3c(cnn3Cc3ccc(F)cc3C(F)(F)F)C2)c1Cl [drawing 864]
0.01 to 1000	0.01 to 1000	O=c1[nH]ncc(N2CCc3c(ncn3-c3ccccc3C(F)(F)F)C2)c1Cl [drawing 871]
0.01 to 1000	0.01 to 1000	O=c1[nH]ncc(N2CCc3c(ncn3Cc3ccc(F)cc3C(F)F)C2)c1Cl [drawing 892]
	1000 to 5000	N#Cc1ccccc1-n1cnc2c1CN(c1cn[nH]c(=O)c1C#N)CC2 [drawing 898]
	0.01 to 1000	C[C@@H](c1ccccc1C(F)(F)F)n1nnc2c1CCN(c1cn[nH]c(=O)c1Cl)C2 [drawing 908]

More lines, now with the values behind:

SMILES	IC50 [1] [nM]	IC50 [2] [nM]
Cc1ccccc1-n1cnc2c1CCN(c1cn[nH]c(=O)c1Cl)C2	1000 to 5000	10000 to 500000
O=c1[nH]ncc(N2CCc3ncn(Cc4ccc(C(F)(F)F)cc4)c3C2)c1Cl	10000 to 500000	1000 to 5000
Cc1ncccc1Cn1cnc2c1CN(c1cn[nH]c(=O)c1Cl)CC2		1000 to 5000
O=c1[nH]ncc(N2CCc3c(ncn3Cc3ccc(C(F)(F)F)nc3)C2)c1Cl	10000 to 500000	10000 to 500000
O=c1[nH]ncc(N2CCc3nn(-c4ccccc4C(F)(F)F)cc3C2)c1Cl	10000 to 500000	0.01 to 1000
CCc1ncccc1Cn1cnc2c1CCN(c1cn[nH]c(=O)c1Cl)C2	0.01 to 1000	0.01 to 1000
O=c1[nH]ncc(N2CCc3c(ncn3Cc3ccc(F)nc3C(F)(F)F)C2)c1Cl	0.01 to 1000	1000 to 5000
CCc1cccnc1Cn1cnc2c1CN(c1cn[nH]c(=O)c1Cl)CC2		5000 to 10000
Cc1nc2c(n1Cc1ccccc1C(F)(F)F)CCN(c1c(Cl)cn[nH]c1=O)C2		10000 to 500000
Cc1nc2c(n1Cc1ccccc1C(F)(F)F)CCN(c1cn[nH]c(=O)c1Cl)C2	0.01 to 1000	0.01 to 1000
O=c1[nH]ncc(N2CCc3c(ncn3Cc3ncccc3C(F)(F)F)C2)c1Cl	1000 to 5000	0.01 to 1000
O=c1[nH]ncc(N2CCc3c(ncn3C3CCCCC3)C2)c1Cl	5000 to 10000	10000 to 500000
O=c1[nH]ncc(N2CCc3c(nnn3Cc3ccccc3C(F)(F)F)C2)c1Br	1000 to 5000	0.01 to 1000
O=c1[nH]ncc(N2CCc3c(nnn3C3CCCCC3)C2)c1Cl	5000 to 10000	10000 to 500000
N#Cc1c(N2CCc3c(nnn3Cc3ccccc3C(F)F)C2)cn[nH]c1=O	1000 to 5000	10000 to 500000
N#Cc1c(N2CCc3c(nnn3Cc3ccc(F)cc3C(F)(F)F)C2)cn[nH]c1=O	1000 to 5000	10000 to 500000

SMILES	IC50 [1] [nM]	IC50 [2] [nM]
O=c1[nH]ncc(N2CCc3c(nnn3Cc3cccnc3CC(F)(F)F)C2)c1Cl		0.01 to 1000
CCOc1cccc(Cn2cnc3c2CCN(c2cn[nH]c(=O)c2Cl)C3)n1		1000 to 5000
O=c1[nH]ncc(N2CCc3c(cnn3Cc3cccnc3CC(F)(F)F)C2)c1Cl		1000 to 5000
CC(c1ccccc1C(F)(F)F)n1nnc2c1CCN(c1cn[nH]c(=O)c1C#N)C2 (centres unmarked)		5000 to 10000
O=c1[nH]ncc(N2CCc3c(ncn3Cc3ccccc3C(F)(F)F)C2)c1Br [drawing 838]	1000 to 5000	0.01 to 1000
Cc1ccccc1Cn1cnc2c1CCN(c1cn[nH]c(=O)c1Cl)C2 [drawing 840]	0.01 to 1000	0.01 to 1000
C[C@H](c1ccccc1)n1cnc2c1CCN(c1cn[nH]c(=O)c1Cl)C2 [drawing 842]	1000 to 5000	0.01 to 1000
O=c1[nH]ncc(N2CCc3c(ncn3Cc3ccc(F)cc3C(F)(F)F)C2)c1Cl [drawing 844]	0.01 to 1000	0.01 to 1000
O=c1[nH]ncc(N2CCc3ncn(-c4ccccc4C(F)(F)F)c3C2)c1Cl [drawing 847]	5000 to 10000	10000 to 500000
O=c1[nH]ncc(N2CCc3c(nnn3Cc3ccccc3C(F)(F)F)C2)c1Cl [drawing 859]	0.01 to 1000	0.01 to 1000
O=c1[nH]ncc(N2CCc3c(ncn3Cc3ccccc3C(F)(F)F)C2)c1Br [drawing 862]	0.01 to 1000	0.01 to 1000
O=c1[nH]ncc(N2CCc3ncn(-c4ccccc4C(F)(F)F)c3C2)c1Cl [drawing 869]		1000 to 5000
N#Cc1c(N2CCc3c(ncn3Cc3ccccc3C(F)(F)F)C2)cn[nH]c1=O [drawing 873]	0.01 to 1000	0.01 to 1000
O=c1[nH]ncc(N2CCc3c(ncn3Cc3ccccc3)C2)c1Cl [drawing 880]	1000 to 5000	0.01 to 1000
O=c1[nH]ncc(N2CCc3c(cnn3Cc3ccc(F)cc3C(F)(F)F)C2)c1Cl [drawing 907]		0.01 to 1000
